Assay results published in patent US20240358678A1, “METHODS AND COMPOSITIONS FOR ENHANCING CHEMOTHERAPEUTIC DRUG UPTAKE INTO BRAIN TUMORS” (Brown University, priority 2023, published 2024).

Test system: HCMEC/D3 cells
Assay: Bulk RNA-sequencing of HCMEC/D3 cells treated with BIA
Format: cell-based, human
Experimental: RNA-sequencing of HCMEC/D3 cells treated with BIA: For RNA-sequencing, HCMEC/D3 cells were plated at a density of 500,000 cells/well in a 6-well plate. Left to grow for 24 hours, and then treated with 1 μM of BIA or DMSO (control). After 24 hours, cells were collected and processed for RNA extraction using the column-based RNeasy kit (QIAGEN), following provider's instructions. RNA quality and quantity were quantified using a Nanodrop™ One (Invitrogen). At least 500 ng of RNA was submitted for bulk RNA-sequencing at GeneWiz (Azenta Life Sciences). QC was accessed, and library was prepared with Poly(A) selection. Sequencing was performed using Illumina HiSeq.
Differential gene expression on the RNA-seq raw data (FASTQ files) was analyzed by Azenta Life Sciences using DESeq2 aligning to human transcriptome. Data QC was verified. Log2 fold change (Log 2FC) was calculated by Log2 (BIA group mean normalized counts/Control group mean normalized counts). The Wald test p-value and Benjamini-Hochberg adjusted p-value were calculated. A heatmap and volcano plot of top adjusted p-value differentially expressed genes (DEGs) in ensemble ID annotation bi-clustering to treatment conditions were generated. Control and BIA groups consisted of three-independent samples.

CC(=O)ON=C1C(=C2C(=O)Nc3cc(Br)ccc32)Nc2ccccc21 [BIA, 6-bromoindirubin acetoxime]
ERG expression: downregulation of ERG | expression of WNT4, WNT10A and WNT11 ligands: increase of expression | expression of WNT7B and WNT ligand receptors FZD4 and FZD7: decrease | CDH5 gene expression change upon BIA treatment (BIA 1 μM, 24 hrs): −3.06 fold, log 2 | PCDH12 expression (BIA 1 μM, 24 hrs): increased its expression | expression of PHGDH, AXIN2, TCF7, VLDLR and VEGFA (BIA 1 μM, 24 hrs): promoted expression | expression of angiogenesis-related genes MMRN2, CD93, ACVRL1, KDR, SMAD6 and S1PR3 (BIA 1 μM, 24 hrs): downregulated | significantly downregulated differentially expressed genes (BIA 1 μM, 24 hrs): 652 genes | significantly upregulated differentially expressed genes (BIA 1 μM, 24 hrs): 862 genes | BTB-genes modulated by BIA (of the 12 BTB-genes of the in-silico screening): 8 of the 12
